Assay results: patent publication US10196701B2, “Hepatitis B virus capsid assembly” (The Penn State Research Foundation, priority 2015, dated 2019)

What was measured:
[1] = test system: HBc (HBV capsid assembly); assay: In vitro capsid assembly in RRL, agarose gel electrophoresis; assay type: biochemical, Hepatitis B virus
Protocol: (§1) The TNT Coupled Rabbit Reticulocyte Lysate (RRL) in vitro translation system (Promega) was used to express the HBc proteins as recommended by the manufacturer's protocol. In vitro translated proteins were labeled by ^35S methionine. The translation reaction mix contained ca. 125 mM KCI and 2.5 mM Mg^++ (Promega).
(§2) Unless specifically indicated otherwise, the general assembly reactions included 1 to 3 microL of translation products per 10 microL final reaction volume in 1× buffer 3 (100 mM NaCl, 50 mM Tris-HCl, 10 mM MgCl2, 1 mM DTT, pH 7.9; New England Biolabs) supplemented with 1×EDTA-free protease inhibitor cocktail (Roche) and 0.8 U/μl RNasin Plus RNase Inhibitor (Promega). The reactions were incubated for 16 hrs at 37° C. unless indicated otherwise. Where indicated, additional enzymatic manipulations were performed using the same reaction buffer as above. (1) Exogenous phosphatase treatment. One unit of calf intestinal alkaline phosphatase (CIAP; New England Biolabs) per microliter of the final reaction volume was added at the end of translation and incubated for 16 hours at 37° C. (2) Kinase inhibitor treatment. […] The final concentration of DMSO in all reactions was 1% (i.e., kinase inhibitor stocks were always diluted 100-fold into the translation or assembly reactions). (3) Phosphatase inhibitor treatment. A cocktail of non-specific phosphatase inhibitors (10 mM NaF, 50 mM β-glycerophosphate, 10 mM sodium pyrophosphate, and 2 mM sodium orthovanadate; all final concentrations) were added at the end of the translation and incubated for 16 hours at 37° C. Alternatively, okadaic acid (Sigma) was added at the end of the translation at the indicated concentrations and incubated for 16 hours at 37° C. (4) RNase A digestion. RNase A (100 μg/ml final concentration) was added at the end of the translation and incubated for 16 hour at 37° C., or added at the end of the 16 hr assembly reaction and incubated for another one hr.
(§3) ^35S-labeled translation reactions were resolved by 1% agarose gel electrophoresis (100 V for ˜3 hours), using 6×DNA Loading Buffer Blue (New England Biolabs). The gels were then soaked in 10×SSC (1.5 M NaCl, 150 mM sodium citrate, pH 7.0) for approximately 30 minutes and transferred overnight to nitrocellulose membrane by capillary transfer. The next day the membranes were UV cross-linked and dried in a vacuum oven for 2 hours. The translation products were analyzed by autoradiography and Western blotting with the rabbit polyclonal anti-HBcAg (Dako) or mouse monoclonal anti-woodchuck hepatitis virus core protein (Ning X, et al. (2011) PLoS pathogens 7: e1002255).

HBc CTD = assay: Mobility of unassembled HBc on agarose gel (CTD phosphorylation state) and HBc protein levels in RRL; assay type: biochemical, Hepatitis B virus; conditions: for mobility upshift on the agarose gel of WT HBc: kinase inhibitors added at beginning of translation, ERKI 310 μM, Bisindo 40 μM; for mobility upshift on the agarose gel of WT HBc / C149 mobility on the agarose gel: Rosc 250 μM; for C149 mobility on the agarose gel: kinase inhibitors
Protocol: as §1, §2, §3
^35S-labeled translation reactions were resolved by SDS-PAGE on 15% or 12.5% polyacrylamide gels. The resolved proteins were transferred to PVDF membrane and detected by autoradiography or Western blotting as above.

PP2A = conditions: cellular serine/threonine phosphatase PP2A; Cohen P, et al. (1990); cited from earlier work
PP1 = conditions: cellular serine/threonine phosphatase PP1; Cohen P, et al. (1990); cited from earlier work
[2] = kinase inhibitors, Rosc 250 μM, CDK2I 250 μM
[3] = phosphatase inhibitor added during assembly incubation, OA 50 nM
[4] = CIAP treatment following translation
[5] = RNase pretreatment before assembly
[6] = RNase treatment before assembly

For `COc1ccc(CNc2nc(N(CCO)CCO)nc3c2ncn3C(C)C)cc1` [CDK2 inhibitor, CDK2 inhibitor III], which 7E assembly [1, 2] is on record?
The 7E assembly was “little effect”.

What about the “levels of the WT and mutant HBc proteins” value (HBc CTD; SDS-PAGE, CDK2I 250 μM) of the same molecule?
Its value is “increase”.

And the “mobility upshift on the agarose gel of WT HBc” value (“mobility upshift … of WT HBc” below) (HBc CTD; CDK2I 250 μM)?
Its value is “induced a mobility upshift”.

And the “C149 mobility on the agarose gel” value (HBc CTD; CDK2I 250 μM)?
The value was “no effect”.

With `CN(C)CCCn1cc(C2=C(c3c[nH]c4ccccc34)C(=O)NC2=O)c2ccccc21` [PKC inhibitor, Bisindolymaleimide I] as the molecule, how does the “mobility upshift … of WT HBc” value (HBc CTD; CDK2I 250 μM) read?
The value was “no effect”.

For `CC[C@H](CO)Nc1nc(NCc2ccccc2)c2ncn(C(C)C)c2n1` [roscovitine, Roscovitine], which 7E assembly [1, 2] is on record?
Its 7E assembly is “little effect”.

And the “C149 mobility on the agarose gel” value (HBc CTD; CDK2I 250 μM)?
The value was “no effect”.

With `Nc1[nH]nc2nnc(-c3c(-c4ccccc4)nn4ccccc34)cc12` [ERK inhibitor, Erk inhibitor II] as the molecule, how does the “mobility upshift … of WT HBc” value (HBc CTD; CDK2I 250 μM) read?
The value was “no effect”.

Which IC50 (PP2A) does the source give for `C=C1[C@@H](O)[C@@H]2O[C@]3(CC[C@H](/C=C/[C@@H](C)[C@@H]4CC(C)=C[C@@]5(O[C@H](C[C@@](C)(O)C(=O)O)CC[C@H]5O)O4)O3)CC[C@H]2O[C@@H]1[C@@H](O)C[C@H](C)[C@H]1O[C@@]2(CCCCO2)CC[C@H]1C` [OA, okadaic acid] here?
Its IC50 is ~0.1 nM.

And the IC50 (PP1)?
The IC50 was 15 to 20 nM.

What about the “capsid assembly by 3A” value [1, 3] of the same molecule?
Its value is “not inhibited”.

What about the “capsid assembly by 3E” value [1, 3] of the same molecule?
Its value is “prevented assembly”.

And the “mobility upshift of the WT HBc on the agarose gel” value (HBc CTD; phosphatase inhibitor added during overnight 37° C. incubation following translation, OA 50 nM)?
Its value is “completely blocked”.

What about the “OA concentration that could significantly affect the dephosphorylation-induced mobility upshift of the WT HBc” value (HBc CTD; titration of OA, overnight incubation at 37° C.) of the same molecule?
The value was 4 nM.

B1: CIAP: calf intestinal alkaline phosphatase, exogenous phosphatase (New England Biolabs) (protein, UniProt P19111 20-506, looked up)
Intestinal-type alkaline …: LVPVEEEDPAFWNRQAAQALDVAKKLQPIQTAAKNVILFLGDGMGVPTVTATRILKGQMNGKLGPETPLAMDQFPYVALSKTYNVDRQVPDSAGTATAYLCGVKGNYRTIGVSAAARYNQCKTTRGNEVTSVMNRAKKAGKSVGVVTTTRVQHASPAGAYAHTVNRNWYSDADLPADAQMNGCQDIAAQLVNNMDIDVILGGGRKYMFPVGTPDPEYPDDASVNGVRKRKQNLVQAWQAKHQGAQYVWNRTALLQAADDSSVTHLMGLFEPADMKYNVQQDHTKDPTLQEMTEVALRVVSRNPRGFYLFVEGGRIDHGHHDDKAYMALTEAGMFDNAIAKANELTSELDTLILVTADHSHVFSFGGYTLRGTSIFGLAPSKALDSKSYTSILYGNGPGYALGGGSRPDVNDSTSEDPSYQQQAAVPQASETHGGEDVAVFARGPQAHLVHGVEEETFVAHIMAFAGCVEPYTDCNLPAPTTATSIPD
Which “assembly of the WT HBc” value ([1]; CIAP 1 unit per microliter, 16 hours at 37° C. following translation) does the source give for B1 here?
Its value is “induced the assembly”.

And the “assembly of the 3A mutant” value [1, 4]?
The value was “did not have a significant effect”.

What about the “assembly of the 3E mutant” value [1, 4] of the same molecule?
The value was “did not have a significant effect”.

What about the “mobility of the C149 truncation mutant” value (HBc CTD; [4]) of the same molecule?
Its value is “did not affect the mobility”.

B2: RNase: RNase A, 100 μg/ml final concentration (protein, UniProt P61823 27-150, looked up)
Ribonuclease pancreatic: KETAAAKFERQHMDSSTSAASSSNYCNQMMKSRNLTKDRCKPVNTFVHESLADVQAVCSQKNVACKNGQTNCYQSYSTMSITDCRETGSSKYPNCAYKTTQANKHIIVACEGNPYVPVHFDASV
Which results are given for B2?
assembly of the 3A mutant [1, 5]: no effect; assembly of the 3E mutant [1, 5]: prevented assembly; WT HBc capsid assembly ([1]; RNase treatment before CIAP treatment, RNase A 100 μg/ml): prevented capsid assembly; 7A assembly [1, 6]: abolished; 7E assembly [1, 6]: no effect; assembled capsids (WT and mutants) ([1]; RNase treatment following the completion of capsid assembly): little effect
